Test systems include OVCAR-5 ovarian; MOLT-4 leukemia; M14 melanoma; HOP-92 NSCLC; SK-OV-3 ovarian; U251 CNS; NCI-H522 lung; CCRF-CEM leukemia; KM12 colon; 786-0 renal; SF-539 CNS; SF-268 CNS; ACHN renal.
Holding throughout (assay): NCI-60 cell line screen, 48 h

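A five-concentration, 48-hour dose response in 96-well plates underlies each endpoint, interpolated linearly between surrounding concentrations. Definition used: TGI = concentration required for complete inhibition of growth.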

Consider `C[Si](C)(OCCS(=O)(=O)O)C1S(=O)(=O)OCCOS1(=O)=O`, for which the TGI in the test with OVCAR-5 ovarian, in the test with MOLT-4 leukemia, with M14 melanoma, in the test on HOP-92 NSCLC, in the test on SK-OV-3 ovarian and in the test with U251 CNS was over 100 µM throughout. For the same molecule, the TGI in the test on NCI-H522 lung, with CCRF-CEM leukemia, with KM12 colon, in the test with 786-0 renal, with SF-539 CNS and in the test on SF-268 CNS was over 100 µM throughout. The same molecule gave a TGI in the test on ACHN renal of over 100 µM.
On to `CN(C)c1ccc(/C=C/C=C(/C#N)c2ccccc2)cc1`, for which the TGI in the test with OVCAR-5 ovarian is over 100 µM; in the test on MOLT-4 leukemia, over 55.7 µM; in the test with M14 melanoma it was over 85.1 µM; with HOP-92 NSCLC, over 100 µM; in the test on SK-OV-3 ovarian it was over 74.9 µM; with U251 CNS it was 55.5 µM. The TGI in the test with NCI-H522 lung is over 65.7 µM; with CCRF-CEM leukemia, over 77.1 µM; in the test with KM12 colon it was 34.1 µM; in the test with 786-0 renal, over 62.7 µM; in the test on SF-539 CNS, 64.7 µM; in the test on SF-268 CNS, over 100 µM. This molecule returned a TGI in the test with ACHN renal of over 100 µM.
With `CCC(CCCC[C@@H]1CC[C@H]2CC(=O)C[C@@H]12)OC` (some centres not stated), the TGI in the test with OVCAR-5 ovarian, with MOLT-4 leukemia, with M14 melanoma, in the test on HOP-92 NSCLC, in the test on SK-OV-3 ovarian and in the test on U251 CNS was over 100 µM in each case. For the same molecule, the TGI in the test with NCI-H522 lung, with CCRF-CEM leukemia, in the test on KM12 colon, in the test with 786-0 renal, with SF-539 CNS and in the test with SF-268 CNS was over 100 µM each time. The molecule further displayed a TGI in the test on ACHN renal of over 100 µM.
Turning to `C=CC[C@H]1[C@H](O[Si](C)(C)C(C)(C)C)C=CC(=O)[C@@H]1CC(=O)N(Cc1ccccc1)Cc1ccccc1`, the TGI in the test on OVCAR-5 ovarian was over 100 µM; in the test on MOLT-4 leukemia it was over 100 µM; with M14 melanoma it was over 100 µM; in the test on HOP-92 NSCLC, 8.51 µM; in the test with SK-OV-3 ovarian, over 100 µM; with U251 CNS it was over 100 µM. Further, the TGI with NCI-H522 lung is over 100 µM; with CCRF-CEM leukemia, over 100 µM; with KM12 colon, over 100 µM; with 786-0 renal, 84.9 µM; in the test on SF-539 CNS, over 100 µM; in the test on SF-268 CNS it was 93.4 µM. The TGI in the test on ACHN renal is over 100 µM.
As for `COC(=O)/N=[N+](\[O-])C(c1ccc(OC)cc1)C1CCCCC1` (configuration not stated), the TGI turned out to be 11.9 µM in the test with OVCAR-5 ovarian; 31.6 µM with MOLT-4 leukemia; 13.1 µM in the test with M14 melanoma; 36.8 µM in the test on HOP-92 NSCLC; 18.2 µM in the test on SK-OV-3 ovarian; 20.1 µM with U251 CNS. The TGI in the test with NCI-H522 lung is 5.1 µM; in the test with CCRF-CEM leukemia, 20.6 µM; in the test with KM12 colon it was 16.7 µM; in the test with 786-0 renal it was 32.4 µM; with SF-539 CNS, over 48.3 µM; in the test with SF-268 CNS, 37.9 µM. Moreover, in the test with ACHN renal, the TGI was 16.3 µM.
As for `CC(=O)Nc1ccc2[nH]c(-c3cccc(F)c3)cc(=O)c2c1`, the TGI with OVCAR-5 ovarian was over 100 µM; in the test with MOLT-4 leukemia, over 100 µM; with M14 melanoma, over 100 µM; in the test on HOP-92 NSCLC it was over 55.1 µM; in the test on SK-OV-3 ovarian, over 100 µM; in the test on U251 CNS, 16.3 µM. In addition, the TGI in the test on NCI-H522 lung is 20.2 µM; in the test with CCRF-CEM leukemia it was over 100 µM; in the test on KM12 colon, over 100 µM; in the test with 786-0 renal, over 100 µM; in the test with SF-539 CNS, 6.92 µM; in the test with ACHN renal, over 100 µM.
In the case of `COc1ccc(C(C#N)NNc2nc(C)cc(=O)[nH]2)cc1OC` (configuration not stated), the TGI with OVCAR-5 ovarian, with MOLT-4 leukemia, in the test on M14 melanoma, with HOP-92 NSCLC, in the test on SK-OV-3 ovarian and in the test with U251 CNS was over 100 µM in each case. Also, the TGI in the test on NCI-H522 lung, in the test on CCRF-CEM leukemia, in the test on KM12 colon, with 786-0 renal, with SF-539 CNS and with SF-268 CNS was over 100 µM each time. Besides, in the test with ACHN renal, the TGI was over 100 µM.
In the case of `Cc1ccc2c(n1)C(=O)c1ccccc1C2=O`, the TGI is over 56.5 µM in the test on OVCAR-5 ovarian; over 88.7 µM in the test on MOLT-4 leukemia; over 75.5 µM in the test with M14 melanoma; over 100 µM in the test on HOP-92 NSCLC; over 100 µM in the test with SK-OV-3 ovarian; 97.7 µM in the test with U251 CNS. Also, the TGI with NCI-H522 lung is 52.4 µM; with CCRF-CEM leukemia it was over 100 µM; with KM12 colon it was over 100 µM; in the test with 786-0 renal, over 100 µM; in the test with SF-539 CNS, over 87.1 µM; with SF-268 CNS, over 100 µM. This molecule also showed a TGI in the test with ACHN renal of over 100 µM.
Take `COCc1cc2c(cc1/C=C/[N+](=O)[O-])OCO2`: the TGI is 30.6 µM in the test with OVCAR-5 ovarian; over 100 µM in the test with MOLT-4 leukemia; 30.6 µM in the test on M14 melanoma; 36.8 µM in the test with HOP-92 NSCLC; 31.9 µM in the test with SK-OV-3 ovarian; 31.6 µM in the test with U251 CNS. Further, the TGI with NCI-H522 lung came to 41.2 µM; in the test on CCRF-CEM leukemia, 37.7 µM; in the test with KM12 colon it was 35.8 µM; in the test on 786-0 renal, 33.5 µM; in the test with SF-539 CNS it was 44.9 µM; in the test with SF-268 CNS, 40.4 µM. In the test on ACHN renal, this molecule yielded a TGI of 30.9 µM.
Consider `COc1ccc(C2S/C(=C\c3ccc(O)cc3)C(=O)N2NC(=O)Cc2ccccc2)cc1` (configuration not stated), for which the TGI with OVCAR-5 ovarian, in the test on MOLT-4 leukemia, with M14 melanoma, in the test with HOP-92 NSCLC, with SK-OV-3 ovarian and in the test with U251 CNS was over 100 µM in each case. In addition, the TGI in the test on NCI-H522 lung, with CCRF-CEM leukemia, in the test with KM12 colon, in the test on 786-0 renal, in the test with SF-539 CNS and in the test on SF-268 CNS was over 100 µM each time. In the test with ACHN renal, this molecule returned a TGI of over 100 µM.
Take `O=C(CSC(=S)N1CCOCC1)Nc1nc2c(s1)CCCC2`: the TGI in the test with OVCAR-5 ovarian was over 100 µM; with MOLT-4 leukemia it was over 100 µM; in the test with M14 melanoma, over 100 µM; in the test on HOP-92 NSCLC, 96.2 µM; with SK-OV-3 ovarian it was over 100 µM; with U251 CNS it was over 100 µM. In addition, the TGI is 70.2 µM in the test on NCI-H522 lung; over 100 µM in the test on CCRF-CEM leukemia; over 100 µM in the test on KM12 colon; over 100 µM with 786-0 renal; over 100 µM in the test on SF-539 CNS; over 100 µM in the test with SF-268 CNS. Also, the TGI in the test on ACHN renal was over 100 µM.
